Reference: article PMC7391456, “Targeting fibroblast activation protein (FAP): next generation PET radiotracers using squaramide coupled bifunctional DOTA and DATA^5m chelators” (EJNMMI Radiopharmacy and Chemistry, 2020)
Values joined by “and” are separate entries in the source; they are usually repeats but may differ in a detail not shown here. Identical values can stand only once. Blank lines part the entries; values can stand above or below the molecule they belong to.

Columns and labels:
[1] = Stability studies of gallium-68 complexes in media (EtOH, human serum, saline, PBS); assay type: physicochemical
Experimental: (§1) Gallium-68 stability studies against transmetallation (Fe, Cu, Ca, Mg), transchelation (EDTA, DTPA) as well as in HS, EtOH and saline (0.9% isotone NaCl-solution) were performed. 50 μl of the [^68Ga]Ga-DOTA.SA.FAPi labeling solution with > 95% radiochemical purity were added to 1 mL of the respective media. The measured time points for gallium-68 were 15, 30, 45, 60, 90, 120 min. HS (human male AB plasma, USA origin) was bought from Sigma Aldrich, PBS was purchased from Sigma Aldrich and 0.9% saline from B. Braun Melsungen AG (Melsungen, Germany).

[2] = tested on: HT-29 xenograft mice; assay: Micro-PET/CT imaging in HT-29 tumor-bearing mice; assay type: in vivo, mouse; conditions: PET 60 min p.i.
Experimental: (§2) In vivo tumor model: HT-29 (human colon adenocarcinoma, ATCC, Rockville, Maryland) cells were routinely cultured in Dulbecco’s Modified Eagle Medium supplemented with 10% heat inactivated foetal bovine serum (FBS), 2 mM glutamine, 1% sodium pyruvate and 1% penicillin/streptomycin (Gibco, Life technologies). After detaching the cells, the number of viable cells was counted with the automated Muse™ Cell Analyzer (Merck Millipore). For the HT-29 subcutaneous model, 10.10^6 viable cells, suspended in 100 μl PBS, were inoculated in the right hind leg of female 6-week-old CD1^−/− Foxn1nu mice (n = 3), obtained from Charles River Laboratories (L’Arbresle, France). The animals were kept under environmentally controlled conditions (12 h light/dark cycle, 20–24 °C and 40–70% relative humidity) with food and water ad libitum. When tumors reached an approximate volume of 400 mm^3, 3 mice underwent μPET imaging. All experimental procedures and protocols were performed in accordance with European Directive 86/609/EEC Welfare and Treatment of Animals and were approved by the local ethical commission (2017–070, University of Antwerp, Belgium).
Micro-PET imaging: Micro-PET scans were carried out using an Inveon small-animal PET/CT scanner (Siemens), after i.v. injection of 4 nmol of [^68Ga]-DOTA.SA.FAPi (8.6 MBq, molar activity of 2.1 GBq/ μmol) into tumor bearing mice (n = 3), under isoflurane anesthesia (5% for induction, 2% for maintenance). Static whole-body PET images were acquired 60 min after injection of the radiotracer. Following each PET acquisition, a whole-body CT scan was acquired to obtain the animal’s anatomical information individually.
For quantitative analysis, PET data were reconstructed using 3-dimensional ordered subset expectation maximization (OSEM3D, 16 subsets and 2 iterations) and 18 maximum a posteriori (MAP) iterations including scatter and attenuation correction (matrix size, 128 × 128 × 159; voxel size, 0.776 × 0.776 × 0.776 mm;). Volumes of interest (VOIs) were manually drawn on the PET/CT images using PMOD (version 3.6; PMOD Technologies) to delineate the tumor, heart and muscle.

[3] = tested on: HT-29 xenograft mice; assay: Ex vivo biodistribution in HT-29 xenograft mice; parameters: species or system mouse
Experimental: as §2
Ex vivo biodistribution: Immediately after the CT scans, the animals were sacrificed, the blood, tissues and organs were collected, weighed and the radioactivity was measured using an automatic γ-counter (Wizard^2 2480, PerkinElmer). Values were expressed as percentage of the injected dose per gram (%ID/g).

[4] = Gallium-68 stability against transmetallation (Fe, Cu, Ca, Mg) and transchelation (EDTA, DTPA); assay type: physicochemical
Experimental: as §1

[5] = biological target: T1, Human recombinant PREP (Homo sapiens, UniProt P48147); assay: PREP inhibition assay (IC50, N-succinyl-Gly-Pro-AMC substrate); assay type: biochemical; conditions: N-succinyl-Gly-Pro-AMC 250 μM, pH 7.4, 15 min pre-incubation at 37 °C
T1 sequence (P48147 1-710): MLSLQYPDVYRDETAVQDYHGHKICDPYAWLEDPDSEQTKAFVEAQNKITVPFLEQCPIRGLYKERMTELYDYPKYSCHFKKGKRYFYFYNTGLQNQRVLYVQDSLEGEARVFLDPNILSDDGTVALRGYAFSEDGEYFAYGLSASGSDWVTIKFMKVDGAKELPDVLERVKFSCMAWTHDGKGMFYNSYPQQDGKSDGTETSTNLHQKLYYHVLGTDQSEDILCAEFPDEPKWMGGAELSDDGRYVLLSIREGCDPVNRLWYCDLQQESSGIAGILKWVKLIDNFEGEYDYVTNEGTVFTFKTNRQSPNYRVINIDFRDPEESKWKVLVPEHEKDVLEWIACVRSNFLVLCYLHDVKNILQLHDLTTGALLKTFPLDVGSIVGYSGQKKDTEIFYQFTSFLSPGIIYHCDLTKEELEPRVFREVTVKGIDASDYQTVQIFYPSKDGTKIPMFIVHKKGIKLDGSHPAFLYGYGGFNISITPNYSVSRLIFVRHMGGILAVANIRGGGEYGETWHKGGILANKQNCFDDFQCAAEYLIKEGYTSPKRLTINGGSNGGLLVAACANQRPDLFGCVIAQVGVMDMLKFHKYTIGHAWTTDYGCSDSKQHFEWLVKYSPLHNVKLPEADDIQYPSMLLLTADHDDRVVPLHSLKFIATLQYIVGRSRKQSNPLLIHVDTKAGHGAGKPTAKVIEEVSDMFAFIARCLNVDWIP
Source text: (§3) Enzymes: A gateway-entry clone for human FAP was purchased from Dharmacon (Accession number DQ891423) and the human secretion signal was replaced with the HoneyBee mellitin secretion signal. For transfection and expression of FAP in Sf9 insect cells, the C-terminal BaculoDirect kit from LifeTechnologies was used. The enzyme was purified from the supernatant of the insect cells using immobilized Ni-chelating chromatography (GE healthcare, Diegem, Belgium), followed by anion-exchange chromatography using a 1 mL HiTrap Q (GE healthcare, Diegem, Belgium). Human recombinant PREP was expressed in BL21(DE3) cells and purified using immobilized Co-chelating chromatography (GE healthcare) followed by anion-exchange chromatography on a 1 ml Mono Q column (GE healthcare).
(§4) Eight concentrations of inhibitors were tested. The final DMSO concentration is kept constant during the experiment to exclude any effects. Inhibitors were pre-incubated with the enzyme for 15 min at 37 °C, afterwards the substrate was added and the velocities of AMC release were measured kinetically at λex = 380 nm, λem = 465 nm for at least 10 min at 37 °C. The Infinite 200 (Tecan Group Ltd.) micro-titer plate reader and the Magellan software were used for measurement and data processing, respectively.
(§5) The data were fitted using a non-linear fit model in GraFit 7 software, according to the following equation: y=range/1+x/IC50^s where y is the value of the residual enzymatic activity compared to a non-inhibited sample, x is the final inhibitor concentration in the assay, s is the slope factor and the IC50 is the half maximal inhibitory concentration.

[6] = biological target: T2, human FAP (Homo sapiens, UniProt Q12884); assay: FAP inhibition assay (IC50, Z-Gly-Pro-AMC substrate); assay type: biochemical; conditions: for IC50: Z-Gly-Pro-AMC 50 μM, pH 8, 15 min pre-incubation at 37 °C
T2 construct: the human secretion signal was replaced with the HoneyBee mellitin secretion signal; HoneyBee mellitin secretion signal (replaces the native signal-anchor) (N); C-terminal tag of the BaculoDirect C-term kit (C); made in house; host or cells: Sf9 insect cells (baculovirus); purified from the supernatant
T2 sequence (Q12884 26-760 limits assumed): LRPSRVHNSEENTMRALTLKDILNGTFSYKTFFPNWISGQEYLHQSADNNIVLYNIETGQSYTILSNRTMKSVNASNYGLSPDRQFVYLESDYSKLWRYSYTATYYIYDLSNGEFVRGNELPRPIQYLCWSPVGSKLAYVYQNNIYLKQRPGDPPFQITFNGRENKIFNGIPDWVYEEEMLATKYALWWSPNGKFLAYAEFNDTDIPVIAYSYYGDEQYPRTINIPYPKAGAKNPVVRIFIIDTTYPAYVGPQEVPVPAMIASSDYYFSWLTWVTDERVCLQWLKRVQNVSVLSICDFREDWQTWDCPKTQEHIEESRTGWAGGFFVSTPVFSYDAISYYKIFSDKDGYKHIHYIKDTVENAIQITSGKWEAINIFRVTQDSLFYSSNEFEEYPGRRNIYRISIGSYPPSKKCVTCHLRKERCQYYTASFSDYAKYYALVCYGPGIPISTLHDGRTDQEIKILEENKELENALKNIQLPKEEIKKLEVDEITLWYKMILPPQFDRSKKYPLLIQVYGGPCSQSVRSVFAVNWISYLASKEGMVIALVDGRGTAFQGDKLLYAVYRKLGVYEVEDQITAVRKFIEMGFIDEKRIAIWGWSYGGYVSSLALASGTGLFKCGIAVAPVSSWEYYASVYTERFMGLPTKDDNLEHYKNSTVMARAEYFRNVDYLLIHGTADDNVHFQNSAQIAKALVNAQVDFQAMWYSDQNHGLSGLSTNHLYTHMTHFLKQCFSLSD
Source text: as §3
as §4, with “was” for “is”, “any solvent” for “any”, “processing” for “processing,”
as §5

[7] = HT-29 xenograft mice, 1 h p.i., N=3
[8] = ex vivo biodistribution, 1 h p.i.

- Stability, intact conjugate ([1]; ethanol (EtOH), over 2 h at 37 °C): over 98%
- Stability, intact conjugate ([1]; human serum (HS), over 2 h): over 98%
- Stability, intact conjugate ([1]; saline 0.9% (NaCl), over 2 h): over 98%
- SUVmean heart [2]: 0.15 ± 0.01 and 0.15
- SUVmean kidneys [2]: 0.27 ± 0.11 and 0.27
- SUVmean liver [2]: 0.22 ± 0.08 and 0.22
- SUVmean muscle [2]: 0.18 ± 0.07 and 0.18
- SUVmean small intestine [2]: 0.37 ± 0.14
- SUVmean tumor [2]: 0.75 ± 0.09 and 0.75
- Ex vivo biodistribution, Tumor ([3]; HT-29 xenograft mice, 1 h (60 min) p.i., N=3): 5.2 %ID/g
- Ex vivo biodistribution, Bladder [3, 7]: 0.96 %ID/g
- Ex vivo biodistribution, Blood [3, 7]: 0.56 %ID/g
- Ex vivo biodistribution, Bone [3, 7]: 3.56 %ID/g
- Ex vivo biodistribution, Brain [3, 7]: 1.27 %ID/g
- Ex vivo biodistribution, Fat [3, 7]: 0.38 %ID/g
- Ex vivo biodistribution, Heart [3, 7]: 0.22 %ID/g
- Ex vivo biodistribution, Kidneys [3, 7]: 1.77 %ID/g
- Ex vivo biodistribution, Large Intestine [3, 7]: 0.21 %ID/g
- Ex vivo biodistribution, Liver [3, 7]: 0.70 %ID/g
- Ex vivo biodistribution, Lungs [3, 7]: 0.33 %ID/g
- Ex vivo biodistribution, Muscle [3, 7]: 0.45 %ID/g
- Ex vivo biodistribution, Pancreas [3, 7]: 0.51 %ID/g
- Ex vivo biodistribution, Skin [3, 7]: 0.04 %ID/g
- Ex vivo biodistribution, Small Intestine [3, 7]: 1.81 %ID/g
- Ex vivo biodistribution, Spleen [3, 7]: 0.23 %ID/g
- Ex vivo biodistribution, Stomach [3, 7]: 0.21 %ID/g
- tumor-to-blood ratio [3, 8]: 9.2 ± 1.1
- tumor-to-bone ratio [3, 8]: 1.5 ± 0.2
- tumor-to-large intestine ratio [3, 8]: 24.9 ± 1.7
- tumor-to-muscle ratio [3, 8]: 11.5 ± 2.2
- tumor-to-small intestine ratio [3, 8]: 2.9 ± 0.8
- Stability against transmetallation ([4]; against Ca, after 2 h): > 95%
- Stability against transmetallation ([4]; against Cu, after 2 h): > 95%
- Stability against transchelation ([4]; against DTPA, after 2 h): over 98%
- Stability against transchelation ([4]; against EDTA, after 2 h): over 98%
- Stability against transmetallation ([4]; against Fe, after 90 min): > 95%
- Stability against transmetallation ([4]; against Fe, after 2 h): over 92%
- Stability against transmetallation ([4]; against Mg, after 2 h): > 95%
Structure (SMILES): N#C[C@@H]1CC(F)(F)CN1C(=O)CNC(=O)c1ccnc2ccc(OCCCCNc3c(NCCNC(=O)CN4CCN(CC(=O)[O-])CCN(CC(=O)[O-])CCN(CC(=O)[O-])CC4)c(=O)c3=O)cc12.[68Ga+3] [[^68Ga]Ga-DOTA.SA.FAPi]

- IC50 [5]: 4.7 ± 0.3 µM
- IC50 [6]: 0.7 ± 0.1 nM
- Selectivity index (IC50 PREP / IC50 FAP) ([6]; ratio of the IC50 values for FAP and PREP): 6714
Structure (SMILES): CN(CC(=O)[O-])C1(CCCCC(=O)NCCNc2c(NCCCCOc3ccc4nccc(C(=O)NCC(=O)N5CC(F)(F)C[C@H]5C#N)c4c3)c(=O)c2=O)CN(CC(=O)[O-])CCN(CC(=O)[O-])C1.[Ga+3] [[^natGa]Ga-DATA^5m.SA.FAPi]

- IC50 [5]: 8.7 ± 0.9 µM
- IC50 [6]: 1.4 ± 0.2 nM
Structure (SMILES): N#C[C@@H]1CC(F)(F)CN1C(=O)CNC(=O)c1ccnc2ccc(OCCCCNc3c(NCCNC(=O)CN4CCN(CC(=O)[O-])CCN(CC(=O)[O-])CCN(CC(=O)[O-])CC4)c(=O)c3=O)cc12.[Ga+3] [[^natGa]Ga-DOTA.SA.FAPi]
